Assay: Human HepG2 cell viability assay in 384 well format
Assay type: toxicity, cell-based
Parameters: dose 125 nL, time 70.5 hour; cytotoxicity at 70.5 h: concentration not given beside the values
Conditions: HepG2 cells, read-out: Inhibition

Row | Compound | cytotoxicity at 70.5 h [%]
1 | CCC(CC)C(=O)c1c[nH]c(C(=O)N2CCN(c3ccccc3)CC2)c1 | -3.31
2 | N#Cc1c(Cl)nsc1NCCN1CCOCC1 | -10.1
3 | CN1CCc2nc3cc(C(=O)NCc4cccs4)ccc3c(=O)n2CC1 | -2.15
4 | COCCNC(=O)c1ccc2c(=O)n3c(nc2c1)CCN(C)CC3 | 7.41
5 | CC(C)N1CCCC(Cc2nccnc2Cl)CC1 (configuration not stated) | 0.246
6 | CN(C)c1ncc(I)c(C2CCCCN2S(C)(=O)=O)n1 (configuration not stated) | -3.68
7 | CCn1nc(C)c(CN(Cc2ccccn2)Cc2ccccc2Cl)c1C | 10.9
8 | CN(C)Cc1cnc(CC2CCN(CCc3ccccc3)CC2)cn1 | 0.387
9 | COc1ccccc1CN1CCC(Cc2cnc(CN(C)C)cn2)CC1 | -2.82
10 | O=C(CN1C[C@H]2C[C@H](OCc3ccccc3)C[C@H]2C1)N1CCOCC1 | -4.18
11 | Cc1nn(C)cc1S(=O)(=O)N[C@@H]1CCC[C@@H](n2ccnc2)[C@@H]1O | -6.03
12 | Cc1ccnn1CCC(=O)N1CCCC[C@@]2(C)[C@@H]1CCC(=O)N2C | -4.62
13 | CC(C)N1CCCC(Cc2nccnc2Cl)C1 (configuration not stated) | -4.45
14 | CN1CC(=O)N(C2CCNCC2)Cc2c(NCC(C)(C)C)ncnc21 | -9.73
15 | CC(C)CC(=O)Nc1ccc(Oc2ccsc2C(=O)O)cc1 | 1.56
16 | COCC(=O)Nc1ccc(Oc2ccsc2C(=O)O)cc1 | -6.01
17 | COc1ncc(C(F)(F)F)c(C(=O)O)c1Cl | 24.8
18 | COC(=O)c1ccc(-c2cc(C(F)(F)F)cc(N(C)C)n2)cc1 | -6.66
19 | COc1cc(OC)cc(-c2cc(N)on2)c1 | -7.45
20 | CCOC(=O)[C@H]1CNC[C@@H]1C(=O)OCC | 3.89
21 | OCc1cn(Cc2cccc(F)c2)nn1 | -12.4
22 | CC(O)c1cn(Cc2ccc(F)cc2)nn1 (configuration not stated) | -4.74
23 | OC1(CNc2ccccc2)CCNCC1 | -7.62
24 | N#Cc1cc2cc(Cl)cnc2nc1O | -12
25 | O=C(CC(SC1CCCCC1)C(=O)O)c1ccc(Cl)cc1 (configuration not stated) | -4.64

Row | Compound | cytotoxicity at 70.5 h [%]
26 | CCOc1ccc(C(=O)CC(SC2CCCCC2)C(=O)O)cc1 (configuration not stated) | -6.29
27 | CNc1nc2ncc(Cl)cc2cc1C#N | -2.12
28 | COc1ccc(NCC2(O)CCNCC2)cc1OC | 6.97
29 | CCSCCN1CCCN(S(C)(=O)=O)CC1 | -2.21
30 | CCOc1nnc(CN(CC)CC(=O)NC(C)(C)C)s1 | 10.3
31 | N#CCCn1cnc2c(Br)cc(Br)cc2c1=O | -3.9
32 | Cc1cc(F)c2c(c1)CCCN2Cc1cc(=O)n(C)c(=O)n1C | -8.84
33 | CC(C)c1nnc(NC(=O)N(C)Cc2ccc(C(N)=O)cc2)s1 | -4.8
34 | CC(C)c1nnc(NC(=O)N(C)Cc2ccncc2)s1 | -9.39
35 | CCN(CC1CCOC1)C(=O)NCc1nnc2n1CCCCC2 (configuration not stated) | -7.23
36 | CCOc1nnc(CN(CC)CC(=O)Nc2c(F)cccc2F)s1 | -5.55
37 | Cc1ccc(S(=O)(=O)N2CCN(CCC(N)=O)CC2)s1 | -7.66
38 | CCN(CC1CCOC1)C(=O)NCc1nnc2n1CCC2 (configuration not stated) | -5.15
39 | COc1ccc(N2CCC(N(C)C(=O)Nc3ccncc3)CC2)cc1 | 0.31
40 | Cc1ccc(F)c2c1CCCN2Cc1cc(=O)n(C)c(=O)n1C | -7.78
41 | CN(C(=O)Nc1cccnc1)C1CCN(c2ccc(Cl)cc2)CC1 | 0.04
42 | Cn1cc(C2CCCN2C(=O)c2cnc(-c3ccco3)s2)cn1 (configuration not stated) | -4.49
43 | CCn1cc(S(=O)(=O)Nc2nc3c(s2)CC(C)CC3)cn1 (configuration not stated) | -6.65
44 | Cc1ccccc1-n1cnc(Cl)c1CO | 18.4
45 | c1ccc(-c2nc(CCNCc3cccnc3)co2)cc1 | -4.67
46 | Cc1cc(NCCSc2nccn2C)n2ncnc2n1 | 17.1
47 | c1ccc(-c2nc(CCNCc3ccncc3)co2)cc1 | -5.13
48 | COc1ccc(Br)cc1SCCS(C)(=O)=O | -4.19
49 | Cc1ccc2c(c1)OC(C)CN2C(=O)c1c[nH]c(C)cc1=O (configuration not stated) | 2.52
50 | CC1c2ccc(F)cc2CCN1C(=O)c1[nH]c(=O)[nH]c(=O)c1N (configuration not stated) | -1.6

Row | Compound | cytotoxicity at 70.5 h [%]
51 | CC1c2cc(F)ccc2CCN1C(=O)c1[nH]c(=O)[nH]c(=O)c1N (configuration not stated) | -2.24
52 | Cc1[nH]ccc1C(=O)N1CCOCC12CCCC2 | -0.873
53 | O=C(c1ccc[nH]1)N1CCOCC12CCCC2 | 30.2
54 | Cc1ccc(C(=O)Nc2ccc3c(c2)N(C)CCN(C)C3)c(=O)[nH]1 | -7.32
55 | COCCN(Cc1ccccc1)C(=O)c1csc(-c2nnc[nH]2)n1 | -5.25
56 | CC1CCCCN1C(=O)c1ccc(=O)[nH]n1 (configuration not stated) | -5.98
57 | CCc1nnsc1C(=O)N(C)Cc1nnc2n1CCC2 | 5.35
58 | O=C(O)c1cc(NS(=O)(=O)c2ccccc2F)ccc1N1CCSCC1 | -8.7
59 | Cc1cccc(CS(=O)(=O)CC(O)Cn2cccn2)c1 (configuration not stated) | -4.24
60 | CC(C)c1nc(CS(=O)(=O)Cc2noc(C3CC3)n2)cs1 | -13.6
61 | CN1CCN(c2ccccc2CNC(=O)Cc2ccccc2F)CC1 | -5.79
62 | N#CCCSc1nnc(Cc2ccccc2F)o1 | -3.12
63 | CCNC(=O)Nc1ccc(N2CCC(OC)CC2)c(C(F)(F)F)c1 | -1.82
64 | Fc1ccc(-c2noc(C3COCCO3)n2)cc1F (configuration not stated) | -1.66
65 | CCc1cc(N2CCC(Nc3ccc(Cl)cn3)CC2)ncn1 | 12.5
66 | CC(C)(C)c1cc(NC(=O)NCCc2nnc3n2CCC3)c(C#N)s1 | 8.88
67 | Cc1ccc(Br)cc1NC(=O)NCC(O)CO (configuration not stated) | 3.24
68 | CC(C)c1cc(Br)ccc1NC(=O)NCC(O)CO (configuration not stated) | -3.27
69 | CS(=O)(=O)CCSc1nnc(Cc2ccccc2F)o1 | -1.57
70 | COc1ccc(C(C)NCc2cccs2)cc1Cn1cccn1 (configuration not stated) | 15.6
71 | COCC(=O)Nc1ccc(N2CCC(OC)CC2)c(C(F)(F)F)c1 | -0.835
72 | CCc1nc(CN2CCCN(Cc3noc(C4CC4)n3)CC2)cs1 | -0.776
73 | Cc1cnn(CC(C)NCc2ccc(C#N)cc2)c1 (configuration not stated) | 0.599
74 | COc1cccc(OCC(=O)N2CCOc3ccncc32)c1 | 13.2
75 | Cc1nc(CN(Cc2ccccc2F)C2CCC2)no1 | -3.66

Row | Compound | cytotoxicity at 70.5 h [%]
76 | CCN(C(=O)Cn1cc(Cl)cn1)c1ccccc1 | 5.93
77 | CC(C)N1CCCC(CNC(=O)CN(C)S(=O)(=O)c2ccccc2)C1 (configuration not stated) | -5.65
78 | Cc1ccccc1SCC(=O)NC1CCC(O)CC1 (configuration not stated) | 7.04
79 | O=C1NCC(C(=O)NCc2ccccc2CN2CCOCC2)N1 (configuration not stated) | -4.6
80 | O=C(COCc1ccccc1)NCc1ccc(O)c(F)c1 | -0.734
81 | CN1CCN(CCOc2ccc(NC(=O)c3ccncc3)cc2)CC1 | -3.29
82 | COc1ncccc1N(C)C(=O)Cn1cc(-c2ccccc2)nn1 | -4.75
83 | CC(C)c1noc(CN2CCN(C(=O)OC(C)(C)C)C(C)C2)n1 (configuration not stated) | 7.76
84 | CCc1ccc(C(=O)NCC2CCCN2CC)o1 (configuration not stated) | -3.5
85 | Cc1cc(CN(C)C(=O)CC(C)C)no1 | -2.9
86 | CC(=O)N1CCCN(C(=O)NC(C)Cn2ccnc2)CC1 (configuration not stated) | -4.31
87 | CC(=O)N1CCN(CCNC(=O)NC(C)Cn2ccnc2)CC1 (configuration not stated) | -2.74
88 | COc1ccccc1CC(C)CC(=O)N(C)Cc1cc(C)on1 (configuration not stated) | 2.26
89 | COc1ccc(CN(C)C(=O)CN2CC(n3cccn3)C2)cc1F | -0.231
90 | COc1ccccc1CC(=O)N(C)Cc1cc(C)on1 | -3.86
91 | N#Cc1cccnc1NCCNC(=O)NCCSC(F)(F)F | -10.1
92 | CC(=O)N1CCN(C(=O)c2sccc2Br)CC1 | 15.1
93 | CN(CC(=O)NCCC#N)C(c1ccccc1)c1ccc(F)cc1 (configuration not stated) | -15.7
94 | Cc1n[nH]c(C)c1CNCC(O)c1ccc(F)c(F)c1 (configuration not stated) | -3.32
95 | CC(C)N(CC(N)=O)Cc1c(Cl)ccc2cccnc12 | -8.03
96 | COC(=O)c1ccc(N2CCN(Cc3csc(C)n3)CC2)nn1 | -14.7
97 | CCOCCCC(=O)Nc1ccc(OCc2noc(C3CC3)n2)cc1 | 7.14
98 | CCOCCNC(=O)Nc1ccc(OCc2noc(C3CC3)n2)cc1 | -7.9
99 | COCCCNC(=O)Nc1ccc(OCc2noc(C3CC3)n2)cc1 | -11.8
100 | O=C(Cc1ccccc1Br)NCC(=O)Nc1cn[nH]c1 | -6.36

Row | Compound | cytotoxicity at 70.5 h [%]
101 | O=C(Cc1ccc(Br)s1)NCC(=O)Nc1cn[nH]c1 | -9.18
102 | N#CC1COCCN1S(=O)(=O)c1ccc(F)c(Br)c1 (configuration not stated) | -9.56
103 | CN(C)c1cccc(C2CCCN2c2nc3c(cnn3C)c(=O)[nH]2)c1 (configuration not stated) | 15.4
104 | CC(C)Cn1cc(NC(=O)NC(C)(C)c2nccs2)cn1 | -6.56
105 | CC(C)(NC(=O)Nc1cnn(CC2CCCO2)c1)c1nccs1 (configuration not stated) | -6.03
106 | CN(Cc1c(Cl)ccc2cccnc12)CC(C)(CO)CO | -10.4
107 | c1cc(CCn2ccc(NC3CCSCC3)n2)ccn1 | -3.19
108 | Cc1ncc(C(=O)Nc2cncnc2N(C)C)c(Cl)c1Cl | -9.76
109 | CC(NCCc1nccn1Cc1ccccc1)c1ccsc1 (configuration not stated) | -10.7
110 | CC(C)CCn1ccc(NC2CCSC2)n1 (configuration not stated) | -8.47
111 | Cc1nn(-c2ccc(F)cc2)c2[nH]nc(N)c12 | 8.73
112 | NC(=O)c1ccnc(N2CCN(Cc3ccc(F)cc3Cl)CC2)c1 | -15.2
113 | CCOc1ccc(Cl)c(C(=O)NC(C(N)=O)c2ccccc2)n1 (configuration not stated) | 14.2
114 | Cc1cc(S(C)(=O)=O)c(C)c(S(=O)(=O)NC2CCCC2)c1 | -8.42
115 | Cc1nnc(CN2CCN(Cc3nccn3C)CC2)n1C | -8.45
116 | Cc1cc(NC(=O)N2CCN(C)CC2C)n(CCC#N)n1 (configuration not stated) | 18.4
117 | Cc1cc(NC(=O)N2CCN(C)CC2C)n(C)n1 (configuration not stated) | -6.62
118 | Cc1[nH]n(-c2ccccc2)c2nnc(N)c1-2 | -2.04
119 | c1cnc(Nc2cc(CCC3CCCNC3)ccn2)cn1 (configuration not stated) | -4.31
120 | CC(C)N1CCCCC1c1nc(N(C)C)ncc1I (configuration not stated) | 23.9
121 | CC(C)OCCCN(Cc1cnn(C)c1)Cc1ccccn1 | 21.5
122 | Fc1ccccc1CN(CCCn1ccnc1)CC1CCOC1 (configuration not stated) | 9.07

Source: ChEMBL document CHEMBL3507680, “University of Dundee, Gates Library screen for HepG2 cell viability”
